Measured values published in US20010056085A1, “Methods of using vesicant drug formulations” (priority 1996, published 2001).
Like-named read-outs stand apart in the source and are kept apart here.

Assay: Half-life of ADR destruction by UVA light in the presence of test compounds (decrease in absorbance at 480 nm)
Format: physicochemical
Conditions: for Half-Life of ADR Destruction, 100 μM Test Compound and 0.5 μM Riboflavin: 100 μM test compound with 0.5 μM riboflavin
[1] = UVA light, 100 μM test compound alone

Molecule | Half-Life of ADR Destruction, 100 μM Test Compound [1] | Half-Life of ADR Destruction, 100 μM Test Compound (UVA light, 100 μM test compound alone, listed as 5-(4-Chlorobenzoyl)-1,4-dimethyl-pyrrole-2-acetic acid (Zomepirac)) | Half-Life of ADR Destruction, 100 μM Test Compound and 0.5 μM Riboflavin (UVA light) | Half-Life of ADR Destruction, 100 μM Test Compound
Cc1cc(CC(=O)O)n(C)c1C(=O)c1ccc(Cl)cc1 [Zomepirac, 5-(4-Chlorobenzoyl)-1,4-dimethyl-pyrrole-2-acetic acid, reference compound] | 42.0 min | 43.0 min | 20.1 min | 
O=c1c2ccccc2oc2ccccc12 [Xanthrone] | 5.47 min |  | 6.84 min | 
CC(=O)c1ccccc1 [Acetophenone] | 43.0 min |  | 43.0 min | 
Cc1cc(NC(=O)C2=C(O)c3ccccc3S(=O)(=O)N2C)no1 [Isoxicam, reference compound] | 75.3 min |  |  | 
COc1cccc(C(C)=O)c1 [3′-Methoxyacetophenone] | 33.4 min |  | 33.4 min | 
O=C1c2cccc(S(=O)(=O)O)c2C(=O)c2cccc(S(=O)(=O)O)c21 [Anthraquinone-1,5-disulfonic acid] | 30.1 min |  | 23.2 min | 
COc1cccc(C(=O)O)c1 [3-Methoxy Benzoic Acid] | 43.0 min |  |  | 
COc1ccc2ccccc2c1CO [2-Methoxy-1-naphthalenemethanol] |  |  | 4.43 min | 
CC(=O)c1ccc2ccccc2c1 [2-Acetonaphthone] | 8.36 min |  | 7.92 min | 
NC(=O)c1ccccc1N [2-Aminobenzamide] |  |  | 33.5 min | 
O=C(O)c1cc2c(cc1C(=O)O)C(=O)c1ccccc1C2=O [Anthraquinone-2,3-dicarboxylic acid] | 1.57 min |  |  | 
Nc1ccc(C(=O)NCC(=O)O)cc1 [p-Amino hippuric acid] | 50.2 min |  | 11.1 min | 
COc1ccc(C(=O)CCC(=O)O)c2ccccc12 [Menbutone, 4-Methoxy-γ-oxo-1-naphthalenebutyric acid, reference compound] | 2.21 min |  | 1.37 min | 
CCCCCc1ccc(N)cc1 [4-Pentyl Aniline] |  |  | 4.12 min | 
O=c1ccoc2ccccc12 [Compound 4-Chromone, 4-Chromone] | 43.0 min |  |  | 
COc1ccccc1C(C)=O [2′-Methoxyacetophenone] | 25.1 min |  | 21.5 min | 
COc1ccc(CCCCO)cc1 [4-(4-Methoxyphenyl)-1-Butanol] | 43.0 min |  | 3.46 min | 
COc1ccccc1C(C)CO (stereo not drawn) [2-Methoxy-β-Methyl-Phenylethyl Alcohol] | 43.0 min |  | 8.14 min | 
O=C(O)/C=C/c1ccccc1 [trans-Cinnamic Acid] | 43.0 min |  |  | 
CC(C(=O)O)c1ccc(-c2ccccc2)cc1 (stereo not drawn) [4-Phenyl α-Methyl-Phenylacetic Acid] |  |  | 27.4 min | 

Molecule | Half-Life of ADR Destruction, 100 μM Test Compound [1] | Half-Life of ADR Destruction, 100 μM Test Compound (UVA light, 100 μM test compound alone, listed as 5-(4-Chlorobenzoyl)-1,4-dimethyl-pyrrole-2-acetic acid (Zomepirac)) | Half-Life of ADR Destruction, 100 μM Test Compound and 0.5 μM Riboflavin (UVA light) | Half-Life of ADR Destruction, 100 μM Test Compound
CNc1ccc(C(=O)O)cc1 [4-(Methylamino) Benzoic Acid] |  |  | 75.3 min | 
O=C(O)C=Cc1ccc(O)cc1 [4-Hydroxy Cinnamic Acid] | 50.2 min |  |  | 
NCCc1ccc(O)c(O)c1 [3,4-Dihydroxy Phenethylamine (Dopamine), 3,4-Dihydroxy Phenethylamine] |  |  | 301.0 min | 
OCc1cccc2ccccc12 [1-Naphthalenemethanol] |  |  | 50.2 min | 
COc1ccc2c(c1)c(CC(=O)O)c(C)n2C(=O)c1ccc(Cl)cc1 [Indomethacin, 1-(4-Chlorobenzoyl)-5-Methoxy-2-Methyl-indole-3-acetic acid, reference compound] | 100.3 min |  |  | 
CN1C(C(=O)Nc2ccccn2)=C(O)c2ccccc2S1(=O)=O [Piroxicam, reference compound] | 100.3 min |  | 10.4 min | 
Cc1ccc(N)c(CO)c1 [2-Amino-5-Methyl Benzyl Alcohol] |  |  | 24.5 ± 8.0 min | 
O=C(O)c1ccc2c(c1)C(=O)c1ccccc1-2 [9-Fluorenone-2-carboxylic acid] |  |  | 43.0 min | 
O=C(C(=O)c1ccco1)c1ccco1 [Furil] | 43.0 min |  | 33.5 min | 
O=C(O)CSc1ccc2ccccc2c1 [2-(2-naphthylthio) Acetic acid] | 9.41 min |  | 8.14 min | 
COc1cc2ccc(=O)oc2cc1O [7-Hydroxy-6-methoxycoumarin] | 33.5 min |  | 33.5 min | 
COc1ccc(CCCC(=O)O)cc1 [4-(4-Methoxyphenyl) Butyric Acid] |  |  | 10.8 min | 
Nc1ccc2cc(S(=O)(=O)O)cc(O)c2c1 [6-Amino-4-hydroxy-2-naphthalenesulfonic acid] |  |  | 50.2 min | 
c1cc2c([nH]1)CCCC2 [4,5,6,7-tetrahydroindole] |  |  | 14.3 min | 
NC(C(=O)O)c1ccccc1 (stereo not drawn) [Phenylglycine] |  |  | 67.8 ± 10.7 min | 
COc1ccc2ccccc2c1C(=O)O [2-Methoxynaphthalene-1-carboxylic acid] | 33.5 min |  | 2.95 min | 
NC(=O)NC(=O)c1ccccc1 [Benzoylurea] | 43.0 min |  |  | 
COc1ccc2cc(C(=O)CCC(=O)O)c(OC)cc2c1 [3,6-Dimethoxy-γ-oxo-2-naphthalenebutyric acid] | 30.1 min |  | 3.86 min | 
O=C1c2ccccc2-c2ncccc21 [4-Aza-9-fluorenone] |  |  | 50.2 min | 
3-Amino Phenylsulfone |  |  | 8.60 min | 

Molecule | Half-Life of ADR Destruction, 100 μM Test Compound [1] | Half-Life of ADR Destruction, 100 μM Test Compound (UVA light, 100 μM test compound alone, listed as 5-(4-Chlorobenzoyl)-1,4-dimethyl-pyrrole-2-acetic acid (Zomepirac)) | Half-Life of ADR Destruction, 100 μM Test Compound and 0.5 μM Riboflavin (UVA light) | Half-Life of ADR Destruction, 100 μM Test Compound
Nc1cccc(Cc2ccccc2)c1 [3-Benzylaniline] |  |  | 6.54 min | 
Cc1cccc(CO)c1N [2-Amino-3-Methyl Benzyl Alcohol] |  |  | 18.8 min | 
COc1ccc(C(=O)c2cccc(C(=O)O)c2)cc1OC [3′,4′-Dimethoxy-3-benzophenonecarboxylic acid] | 50.2 min |  | 43.0 min | 
c1ccc2c(c1)CCc1ccccc1N2 [Iminodibenzyl] |  |  | 23.2 min | 
OCc1ccc2ccccc2c1 [2-Naphthalenemethanol] |  |  | 50.2 min | 
Oc1ccc2ccccc2c1 [2-Hydroxynaphthalene] | 30.1 min |  | 23.2 min | 
COc1ccc2c(c1)c(CC(=O)OCC(=O)O)c(C)n2C(=O)c1ccc(Cl)cc1 [Acemetacin, {[1-(4-Chlorobenzoyl)-5-methoxy-2-methylindole-3-yl]acetoxy} acetic acid, reference compound] |  |  | 4.63 min | 
O=C1c2c(O)cccc2Cc2cccc(O)c21 [1,8-Dihydroxyanthrone] | 27.4 min |  | 30.1 min | 
O=C(c1ccc(C(=O)O)c(C(=O)O)c1)c1ccc(C(=O)O)c(C(=O)O)c1 [3,3′,4,4′-Benzophenone-tetracarboxylic acid] | 43.0 min |  |  | 
Nc1ccc(F)cc1 [4-Fluoro Aniline] |  |  | 12.0 min | 
COc1ccc2ccc(=O)oc2c1 [7-Methoxycoumarin] | 20.1 min |  | 18.8 min | 
O=S(=O)=C1C=CC=C(S(=O)(=O)O)C1 [3-Sulfonyl-benzenesulfonic acid] |  |  | 50.2 min | 
CCc1cccc2c3c([nH]c12)C(CC)(CC(=O)O)OCC3 (stereo not drawn) [Etodolac, reference compound] | 33.5 min |  | 6.41 min | 
Cc1cc2ccccc2[nH]1 [2-Methyl Indole] |  |  | 7.00 min | 
c1ccc2cocc2c1 [Compound 2-Benzofuran, 2-Benzofuran] | 23.2 min |  |  | 
Nc1ccccc1CCO [2-Amino Phenylethyl Alcohol] |  |  | 13.7 min | 
COc1ccc(C(C)=O)c(O)c1 [2′-Hydroxy-4-methoxyaceotphenone] |  |  |  | 75.3 min
Nc1cccc2cc(S(=O)(=O)O)ccc12 [5-Amino-2-naphthalenesulfonic acid] | 50.2 min |  |  | 
O=C1COc2ccccc21 [3-Coumaranone] | 11.2 min |  | 11.2 min | 
Cc1ccc(N)cc1CO [3-Amino-6-Methyl Benzyl Alcohol] |  |  | 16.7 min | 
